From ChEMBL document CHEMBL4393714, “Multi-targeting protein-protein interaction inhibitors: Evolution of macrocyclic ligands with embedded carbohydrates (MECs) to improve selectivity” (Eur J Med Chem, 2019)

How the values were obtained:
[1] = molecular target: Substance-K receptor (Homo sapiens) (UniProt P21452); experiment: Displacement of [125I]NKA from human recombinant NK2 receptor at 10 uM measured after 60 mins by scintillation counter method relative to control
[2] = molecular target: Neurotensin receptor type 1 (Homo sapiens) (UniProt P30989); experiment: Displacement of [125I]Tyr3-neurotensin from human recombinant neurotensin receptor type1 at 10 uM measured after 60 mins by scintillation counter method relative to control
[3] = molecular target: 5-hydroxytryptamine receptor 7 (Homo sapiens) (UniProt P34969); experiment: Displacement of [3H]LSD from human recombinant 5-HT7 receptor at 10 uM measured after 120 mins by scintillation counter method relative to control
[4] = molecular target: Neuromedin-K receptor (Homo sapiens) (UniProt P29371); experiment: Displacement of [3H] HSR 142801 from human recombinant neurokinin beta receptor at 10 uM measured after 120 mins by scintillation counter method
[5] = molecular target: Vasopressin V1a receptor (Homo sapiens) (UniProt P37288); experiment: Displacement of [3H] AVP from human recombinant vasopressin V1A receptor at 10 uM measured after 60 mins by scintillation counter method relative to control
[6] = molecular target: Endothelin-1 receptor (Homo sapiens) (UniProt P25101); experiment: Displacement of [125I]endothelin-1 from human recombinant ETA receptor at 10 uM measured after 120 mins by scintillation counter method relative to control
[7] = molecular target: Cav1.2 (L-type calcium channel subunit alpha-1C) (Rattus norvegicus, UniProt P22002); experiment: Displacement of [3H] D888 from rat Cav1.2 (L-type) at 10 uM measured after 120 mins by scintillation counter method relative to control; conditions: probe [3H] D888
[8] = species on record: Rattus norvegicus; experiment: Displacement of [3H]flunitrazepam from rat GABAA Central-type benzodiazepine receptor at 10 uM measured after 120 mins by scintillation counter method relative to control
[9] = molecular target: Adenosine receptor A1 (Homo sapiens) (UniProt P30542); experiment: Displacement of [3H]DPCPX from human recombinant A1 receptor at 10 uM measured after 60 mins by scintillation counter method relative to control
[10] = molecular target: Nociceptin receptor (Homo sapiens) (UniProt P41146); experiment: Displacement of [3H]nociceptin from human recombinant ORL1 at 10 uM measured after 60 mins by scintillation counter method relative to control
[11] = molecular target: 5-hydroxytryptamine receptor 5A (Homo sapiens) (UniProt P47898); experiment: Displacement of [3H]LSD from human recombinant 5-HT5A receptor at 10 uM measured after 120 mins by scintillation counter method relative to control
[12] = molecular target: GABA-A receptor; anion channel (Rattus norvegicus) (UniProt O09028+P15431+P18506+P18508+P19969+P20236+P23574+P23576+P28471+P28473+P30191+P62813+P63079+P63138+Q91ZM7+Q9ES14); experiment: Displacement of [3H]flunitrazepam from rat GABAA ion channel at 10 uM measured after 120 mins by scintillation counter method relative to control; format: protein-complex assay
[13] = molecular target: C-C chemokine receptor type 1 (Homo sapiens) (UniProt P32246); experiment: Displacement of [125I]MIP1-alpha from human recombinant CCR1 receptor at 10 uM measured after 120 mins by scintillation counter method relative to control
[14] = molecular target: Sodium-dependent serotonin transporter (Homo sapiens, UniProt P31645); experiment: Displacement of [3H] imipramine from human recombinant 5-HT transporter at 10 uM measured after 60 mins by scintillation counter method relative to control
[15] = molecular target: D(1A) dopamine receptor (Homo sapiens) (UniProt P21728); experiment: Displacement of [3H]SCH23390 from human recombinant D1 receptor at 10 uM measured after 60 mins by scintillation counter method relative to control
[16] = molecular target: Sodium-dependent noradrenaline transporter (Homo sapiens) (UniProt P23975); experiment: Displacement of [3H] nisoxetine from human recombinant norepinephrine transporter at 10 uM measured after 120 mins by scintillation counter method relative to control
[17] = molecular target: Cannabinoid receptor 1 (Homo sapiens) (UniProt P21554); experiment: Displacement of [3H]CP 55940 from human recombinant CB1 receptor at 10 uM measured after 120 mins by scintillation counter method relative to control
[18] = molecular target: Melanocortin receptor 4 (Homo sapiens) (UniProt P32245); experiment: Displacement of [125I]NDP-alpha-MSH from human recombinant MC 4 receptor at 10 uM measured after 120 mins by scintillation counter method relative to control
[19] = molecular target: Prostaglandin E2 receptor EP4 subtype (Homo sapiens) (UniProt P35408); experiment: Displacement of [3H]PGE2 from human recombinant EP4 receptor at 10 uM measured after 120 mins by scintillation counter method relative to control
[20] = molecular target: 5-hydroxytryptamine receptor 2A (Homo sapiens, UniProt P28223); experiment: Displacement of [3H] ketanserin from human recombinant 5-HT2A receptor at 10 uM measured after 60 mins by scintillation counter method relative to control
[21] = molecular target: C-X-C chemokine receptor type 2 (Homo sapiens) (UniProt P25025); experiment: Displacement of [125I]IL-8 from human recombinant CXCR2 receptor at 10 uM measured after 60 mins by scintillation counter method relative to control
[22] = molecular target: Adenosine receptor A3 (Homo sapiens) (UniProt P0DMS8); experiment: Displacement of [125I] AB-MECA from human recombinant A3 receptor at 10 uM measured after 120 mins by scintillation counter method relative to control
[23] = molecular target: 5-hydroxytryptamine receptor 3A (Homo sapiens) (UniProt P46098); experiment: Displacement of [3H] BRL 43694 from human 5-HT3 at 10 uM measured after 120 mins by scintillation counter method relative to control
[24] = molecular target: 5-hydroxytryptamine receptor 6 (Homo sapiens) (UniProt P50406); experiment: Displacement of [3H]LSD from human recombinant 5-HT6 receptor at 10 uM measured after 120 mins by scintillation counter method relative to control
[25] = species on record: Rattus norvegicus; experiment: Displacement of [3H] batrachotoxinin from rat sodium channel site 2 at 10 uM measured after 60 mins by scintillation counter method relative to control
[26] = molecular target: 5-hydroxytryptamine receptor 1A (Homo sapiens) (UniProt P08908); experiment: Displacement of [3H]-OH-DPAT from human recombinant 5-HT1A receptor at 10 uM measured after 60 mins by scintillation counter method relative to control
[27] = molecular target: D(2) dopamine receptor (Homo sapiens) (UniProt P14416); experiment: Displacement of [3H]methyl-spiperone from human recombinant D2S receptor at 10 uM measured after 60 mins by scintillation counter method relative to control
[28] = molecular target: Mu-type opioid receptor (Homo sapiens) (UniProt P35372); experiment: Displacement of [3H] DAMGO from human recombinant mu opioid receptor at 10 uM measured after 120 mins by scintillation counter method relative to control
[29] = molecular target: Type-1 angiotensin II receptor (Homo sapiens) (UniProt P30556); experiment: Displacement of [125I][Sar1,Ile8]-AT-II from human recombinant AT1 receptor at 10 uM measured after 120 mins by scintillation counter method relative to control

Chain of Prostaglandin E2 receptor EP4 subtype (Homo sapiens) (P35408 whole entry): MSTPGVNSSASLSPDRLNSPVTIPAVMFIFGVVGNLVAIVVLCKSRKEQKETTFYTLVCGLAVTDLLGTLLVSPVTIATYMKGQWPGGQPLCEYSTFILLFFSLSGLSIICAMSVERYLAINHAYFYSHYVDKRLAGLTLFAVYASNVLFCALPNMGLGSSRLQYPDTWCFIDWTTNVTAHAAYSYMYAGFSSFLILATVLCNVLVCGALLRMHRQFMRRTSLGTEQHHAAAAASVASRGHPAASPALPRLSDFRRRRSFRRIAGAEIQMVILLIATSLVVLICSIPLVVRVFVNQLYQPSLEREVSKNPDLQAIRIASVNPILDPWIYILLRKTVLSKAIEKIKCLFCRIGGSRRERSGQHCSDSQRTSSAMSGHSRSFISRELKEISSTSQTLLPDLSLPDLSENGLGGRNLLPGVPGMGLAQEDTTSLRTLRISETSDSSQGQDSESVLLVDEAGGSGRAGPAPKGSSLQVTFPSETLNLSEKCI
Chain of 5-hydroxytryptamine receptor 7 (Homo sapiens) (P34969 whole entry): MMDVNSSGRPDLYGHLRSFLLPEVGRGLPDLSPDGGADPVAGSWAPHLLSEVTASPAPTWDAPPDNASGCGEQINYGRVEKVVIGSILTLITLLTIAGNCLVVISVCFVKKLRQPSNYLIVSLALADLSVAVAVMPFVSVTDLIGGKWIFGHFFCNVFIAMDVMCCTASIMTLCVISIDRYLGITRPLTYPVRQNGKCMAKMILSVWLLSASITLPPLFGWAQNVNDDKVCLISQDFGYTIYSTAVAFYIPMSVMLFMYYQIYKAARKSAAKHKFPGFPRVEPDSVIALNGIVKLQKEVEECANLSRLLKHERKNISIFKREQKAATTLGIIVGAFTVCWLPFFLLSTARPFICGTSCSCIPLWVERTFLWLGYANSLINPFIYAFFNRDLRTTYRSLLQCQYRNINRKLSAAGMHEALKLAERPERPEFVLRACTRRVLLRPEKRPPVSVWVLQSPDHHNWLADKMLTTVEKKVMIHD
Chain of Substance-K receptor (Homo sapiens) (P21452 whole entry): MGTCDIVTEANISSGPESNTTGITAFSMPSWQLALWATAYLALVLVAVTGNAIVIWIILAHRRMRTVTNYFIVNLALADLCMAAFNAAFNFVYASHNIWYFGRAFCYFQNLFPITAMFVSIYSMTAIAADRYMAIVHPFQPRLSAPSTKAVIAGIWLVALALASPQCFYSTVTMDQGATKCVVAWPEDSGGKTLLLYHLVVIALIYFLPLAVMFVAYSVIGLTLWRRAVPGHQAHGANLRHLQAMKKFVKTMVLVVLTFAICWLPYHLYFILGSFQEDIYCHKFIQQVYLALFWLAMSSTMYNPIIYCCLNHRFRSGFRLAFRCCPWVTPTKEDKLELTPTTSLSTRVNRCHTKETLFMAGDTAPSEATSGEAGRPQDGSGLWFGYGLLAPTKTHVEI
Chain of Neurotensin receptor type 1 (Homo sapiens) (P30989 whole entry): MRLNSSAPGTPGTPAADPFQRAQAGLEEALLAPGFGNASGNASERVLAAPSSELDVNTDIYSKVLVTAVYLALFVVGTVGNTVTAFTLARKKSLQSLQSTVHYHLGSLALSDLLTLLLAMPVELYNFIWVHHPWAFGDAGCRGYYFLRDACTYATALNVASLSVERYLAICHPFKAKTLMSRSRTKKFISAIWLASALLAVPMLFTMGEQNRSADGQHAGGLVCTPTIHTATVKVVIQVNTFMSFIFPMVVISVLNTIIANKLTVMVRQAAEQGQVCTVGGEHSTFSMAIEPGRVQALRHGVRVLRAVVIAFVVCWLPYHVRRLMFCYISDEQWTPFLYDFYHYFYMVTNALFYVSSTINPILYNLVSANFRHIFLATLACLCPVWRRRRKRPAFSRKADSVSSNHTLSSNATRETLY
Chain of C-X-C chemokine receptor type 2 (Homo sapiens) (P25025 whole entry): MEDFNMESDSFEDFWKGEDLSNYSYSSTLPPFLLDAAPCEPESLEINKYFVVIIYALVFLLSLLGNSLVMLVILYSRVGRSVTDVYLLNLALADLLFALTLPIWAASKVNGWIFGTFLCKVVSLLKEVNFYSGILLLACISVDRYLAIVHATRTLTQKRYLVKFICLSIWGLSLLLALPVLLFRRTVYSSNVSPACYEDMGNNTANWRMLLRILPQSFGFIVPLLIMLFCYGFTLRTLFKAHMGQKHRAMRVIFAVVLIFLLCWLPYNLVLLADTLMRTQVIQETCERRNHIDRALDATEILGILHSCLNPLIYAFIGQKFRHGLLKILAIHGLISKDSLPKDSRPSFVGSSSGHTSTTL
Chain of D(2) dopamine receptor (Homo sapiens) (P14416 whole entry): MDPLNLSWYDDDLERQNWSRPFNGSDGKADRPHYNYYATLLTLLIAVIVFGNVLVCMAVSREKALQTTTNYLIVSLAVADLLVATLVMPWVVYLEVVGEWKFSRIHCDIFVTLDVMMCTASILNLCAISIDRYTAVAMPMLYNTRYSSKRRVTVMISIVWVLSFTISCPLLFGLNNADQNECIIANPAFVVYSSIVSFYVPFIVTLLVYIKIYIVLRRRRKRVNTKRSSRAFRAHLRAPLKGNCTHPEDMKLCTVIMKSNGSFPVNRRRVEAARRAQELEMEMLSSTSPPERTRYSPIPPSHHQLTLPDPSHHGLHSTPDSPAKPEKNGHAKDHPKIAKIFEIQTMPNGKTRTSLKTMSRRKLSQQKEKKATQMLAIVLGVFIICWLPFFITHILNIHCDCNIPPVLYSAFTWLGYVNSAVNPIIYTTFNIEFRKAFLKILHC
Chain of Cannabinoid receptor 1 (Homo sapiens) (P21554 whole entry): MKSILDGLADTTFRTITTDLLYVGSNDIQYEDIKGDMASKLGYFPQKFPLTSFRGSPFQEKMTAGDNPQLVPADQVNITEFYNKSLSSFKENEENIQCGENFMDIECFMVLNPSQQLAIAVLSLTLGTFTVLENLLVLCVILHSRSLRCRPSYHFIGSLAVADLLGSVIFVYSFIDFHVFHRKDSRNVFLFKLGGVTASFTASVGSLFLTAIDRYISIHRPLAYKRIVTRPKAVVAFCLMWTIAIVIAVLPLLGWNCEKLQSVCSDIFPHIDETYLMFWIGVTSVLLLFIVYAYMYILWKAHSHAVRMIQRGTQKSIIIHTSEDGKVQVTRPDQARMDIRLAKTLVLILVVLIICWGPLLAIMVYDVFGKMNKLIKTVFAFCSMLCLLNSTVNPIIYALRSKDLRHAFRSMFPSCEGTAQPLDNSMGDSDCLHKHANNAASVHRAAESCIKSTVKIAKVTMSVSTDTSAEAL
Chain of Mu-type opioid receptor (Homo sapiens) (P35372 whole entry): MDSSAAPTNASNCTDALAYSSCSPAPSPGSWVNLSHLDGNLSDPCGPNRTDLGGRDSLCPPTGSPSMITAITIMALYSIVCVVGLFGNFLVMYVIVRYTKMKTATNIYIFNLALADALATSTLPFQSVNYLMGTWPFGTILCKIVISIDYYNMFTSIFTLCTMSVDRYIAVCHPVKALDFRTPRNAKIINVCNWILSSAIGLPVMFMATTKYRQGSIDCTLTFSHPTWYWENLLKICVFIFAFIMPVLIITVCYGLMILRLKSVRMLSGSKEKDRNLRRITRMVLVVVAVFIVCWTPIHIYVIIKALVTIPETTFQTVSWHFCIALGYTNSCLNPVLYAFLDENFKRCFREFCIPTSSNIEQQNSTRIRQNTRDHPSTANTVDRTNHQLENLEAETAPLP
Chain of 5-hydroxytryptamine receptor 6 (Homo sapiens) (P50406 whole entry): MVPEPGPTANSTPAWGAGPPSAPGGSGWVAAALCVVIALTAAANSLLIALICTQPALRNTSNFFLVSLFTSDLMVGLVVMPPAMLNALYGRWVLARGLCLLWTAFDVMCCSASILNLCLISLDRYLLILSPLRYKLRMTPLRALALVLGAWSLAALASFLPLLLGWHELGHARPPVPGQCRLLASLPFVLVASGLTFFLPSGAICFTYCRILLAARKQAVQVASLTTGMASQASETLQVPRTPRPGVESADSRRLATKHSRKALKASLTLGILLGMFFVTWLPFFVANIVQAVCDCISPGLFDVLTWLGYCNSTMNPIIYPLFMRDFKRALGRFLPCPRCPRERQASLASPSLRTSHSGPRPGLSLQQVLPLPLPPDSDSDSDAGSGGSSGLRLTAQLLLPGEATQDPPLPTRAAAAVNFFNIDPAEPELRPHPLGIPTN
Chain of Neuromedin-K receptor (Homo sapiens) (P29371 whole entry): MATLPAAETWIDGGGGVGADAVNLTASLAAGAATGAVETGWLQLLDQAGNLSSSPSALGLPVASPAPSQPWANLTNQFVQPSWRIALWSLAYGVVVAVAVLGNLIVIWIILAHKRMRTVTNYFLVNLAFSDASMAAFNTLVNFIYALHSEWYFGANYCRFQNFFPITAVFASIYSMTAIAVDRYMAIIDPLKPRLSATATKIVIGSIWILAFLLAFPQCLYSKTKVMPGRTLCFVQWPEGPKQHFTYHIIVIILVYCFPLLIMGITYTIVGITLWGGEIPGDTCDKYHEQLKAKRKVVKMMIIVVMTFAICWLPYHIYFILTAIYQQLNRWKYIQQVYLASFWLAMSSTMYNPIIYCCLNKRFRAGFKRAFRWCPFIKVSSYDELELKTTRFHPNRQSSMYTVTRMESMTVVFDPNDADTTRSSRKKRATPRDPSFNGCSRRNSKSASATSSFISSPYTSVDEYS
Chain of Adenosine receptor A1 (Homo sapiens) (P30542 whole entry): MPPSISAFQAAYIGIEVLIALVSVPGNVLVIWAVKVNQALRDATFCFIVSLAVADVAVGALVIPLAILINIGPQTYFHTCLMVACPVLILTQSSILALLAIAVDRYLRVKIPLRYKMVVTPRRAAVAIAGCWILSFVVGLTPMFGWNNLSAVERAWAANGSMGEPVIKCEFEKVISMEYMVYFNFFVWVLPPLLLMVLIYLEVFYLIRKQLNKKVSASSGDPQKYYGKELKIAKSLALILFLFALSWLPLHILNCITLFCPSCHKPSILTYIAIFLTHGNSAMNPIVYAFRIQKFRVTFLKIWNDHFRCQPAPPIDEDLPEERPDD

CC(C)CCO[C@@H]1[C@H]2OC(C)(C)O[C@H]2[C@H]2Cn3cc(nn3)COCCCCCCN(CCc3ccc4ccccc4c3)CC[C@H]1O2
inhibition [1]: 98.2% | Activity [2]: 15.7% | inhibition [3]: 22.7% | inhibition [4]: 48.3% | inhibition [5]: 19% | Activity [6]: 7.1% | inhibition at 2 h, 10 µM [7]: 90.5% | Activity [8]: 3.7% | inhibition [9]: 19% | inhibition [10]: 9.9% | inhibition [11]: 89% | Activity [12]: 5.1% | inhibition [13]: 35.2% | inhibition [14]: 68.3% | inhibition [15]: 21.5% | inhibition [16]: 55.7% | inhibition [17]: 33.8% | inhibition [18]: 34% | inhibition [19]: 29.9% | inhibition [20]: 93.2% | inhibition [21]: 20.9% | inhibition [22]: 87.1% | inhibition [23]: 25.2% | inhibition [24]: 16.1% | inhibition [25]: 102% | inhibition [26]: 90.2% | inhibition [27]: 59.6% | inhibition [28]: 96.5% | inhibition [29]: 17.2%
